Assay results: the NIST ThermoML archive (doi:10.1021/acs.jced.6b00210)
Numbers after ± are expanded uncertainties.

Assays:
[1] = xn = mol fraction of the nth substance listed; settings: 100 kPa, Liquid, x2 = 0; for viscosity: Concentric cylinders viscometry; for mass density: Vibrating tube method
[2] = 100 kPa, Liquid; for viscosity: Concentric cylinders viscometry; for mass density: Vibrating tube method

Row | Compound | viscosity ([1]; 293.15 K) [mPa·s] | mass density ([1]; 293.15 K) [kg/m3] | viscosity ([1]; 298.15 K) [mPa·s] | mass density ([1]; 298.15 K) [kg/m3] | viscosity ([1]; 303.15 K) [mPa·s] | mass density ([1]; 303.15 K) [kg/m3] | viscosity ([2]; 293.15 K) [mPa·s] | mass density ([2]; 293.15 K) [kg/m3] | viscosity ([2]; 298.15 K) [mPa·s] | mass density ([2]; 298.15 K) [kg/m3] | viscosity ([2]; 303.15 K) [mPa·s] | mass density ([2]; 303.15 K) [kg/m3] | viscosity ([2]; 308.15 K) [mPa·s] | mass density ([2]; 308.15 K) [kg/m3] | viscosity ([2]; 313.15 K) [mPa·s] | mass density ([2]; 313.15 K) [kg/m3] | viscosity ([2]; 318.15 K) [mPa·s] | mass density ([2]; 318.15 K) [kg/m3] | viscosity ([2]; 323.15 K) [mPa·s] | mass density ([2]; 323.15 K) [kg/m3] | further results
1 | CCC(C)O (stereo not drawn) [butan-2-ol] + Nc1ccccc1 | 3.67 ± 0.44 | 806.7 ± 0.2 | 3.04 ± 0.37 | 802.7 ± 0.2 | 2.54 ± 0.31 | 798.4 ± 0.2 | – | – | – | – | – | – | – | – | – | – | – | – | – | – | viscosity ([1]; 308.15 K): 2.13 ± 0.26 mPa·s; mass density ([1]; 308.15 K): 794.1 ± 0.2 kg/m3; viscosity ([1]; 313.15 K): 1.8 ± 0.22 mPa·s; mass density ([1]; 313.15 K): 789.8 ± 0.2 kg/m3; viscosity ([1]; 318.15 K): 1.54 ± 0.19 mPa·s; mass density ([1]; 318.15 K): 785.2 ± 0.2 kg/m3; viscosity ([1]; 323.15 K): 1.33 ± 0.16 mPa·s; mass density ([1]; 323.15 K): 780.6 ± 0.2 kg/m3
2 | CCC(C)O (stereo not drawn) [butan-2-ol] | – | – | – | – | – | – | 3.67 ± 0.44 | 806.7 ± 0.2 | 3.04 ± 0.37 | 802.7 ± 0.2 | 2.54 ± 0.31 | 798.4 ± 0.2 | 2.13 ± 0.26 | 794.1 ± 0.2 | 1.8 ± 0.22 | 789.8 ± 0.2 | 1.54 ± 0.19 | 785.2 ± 0.2 | 1.33 ± 0.16 | 780.6 ± 0.2 | –
3 | CC(C)O [propan-2-ol] + Nc1ccccc1 | 2.42 ± 0.29 | 785.4 ± 0.2 | 2.08 ± 0.25 | 781.1 ± 0.2 | 1.8 ± 0.22 | 776.8 ± 0.2 | – | – | – | – | – | – | – | – | – | – | – | – | – | – | viscosity ([1]; 308.15 K): 1.56 ± 0.19 mPa·s; mass density ([1]; 308.15 K): 772.4 ± 0.2 kg/m3; viscosity ([1]; 313.15 K): 1.36 ± 0.16 mPa·s; mass density ([1]; 313.15 K): 768 ± 0.2 kg/m3; viscosity ([1]; 318.15 K): 1.19 ± 0.14 mPa·s; mass density ([1]; 318.15 K): 763.4 ± 0.2 kg/m3; viscosity ([1]; 323.15 K): 1.05 ± 0.13 mPa·s; mass density ([1]; 323.15 K): 758.8 ± 0.2 kg/m3
4 | CCCC(C)O (stereo not drawn) [pentan-2-ol] + Nc1ccccc1 | 3.97 ± 0.48 | 809.3 ± 0.2 | 3.44 ± 0.41 | 805.3 ± 0.2 | 2.94 ± 0.35 | 801.2 ± 0.2 | – | – | – | – | – | – | – | – | – | – | – | – | – | – | viscosity ([1]; 308.15 K): 2.48 ± 0.3 mPa·s; mass density ([1]; 308.15 K): 797 ± 0.2 kg/m3; viscosity ([1]; 313.15 K): 2.04 ± 0.25 mPa·s; mass density ([1]; 313.15 K): 792.7 ± 0.2 kg/m3; viscosity ([1]; 318.15 K): 1.65 ± 0.2 mPa·s; mass density ([1]; 318.15 K): 788.4 ± 0.2 kg/m3; viscosity ([1]; 323.15 K): 1.29 ± 0.16 mPa·s; mass density ([1]; 323.15 K): 784 ± 0.2 kg/m3
5 | CC(C)O [propan-2-ol] | – | – | – | – | – | – | 2.42 ± 0.29 | 785.4 ± 0.2 | 2.08 ± 0.25 | 781.1 ± 0.2 | 1.8 ± 0.22 | 776.8 ± 0.2 | 1.56 ± 0.19 | 772.4 ± 0.2 | 1.36 ± 0.16 | 768 ± 0.2 | 1.19 ± 0.14 | 763.4 ± 0.2 | 1.05 ± 0.13 | 758.8 ± 0.2 | –
6 | CCCC(C)O (stereo not drawn) [pentan-2-ol] | – | – | – | – | – | – | 3.97 ± 0.48 | 809.3 ± 0.2 | 3.44 ± 0.41 | 805.3 ± 0.2 | 2.94 ± 0.35 | 801.2 ± 0.2 | 2.48 ± 0.3 | 797 ± 0.2 | 2.04 ± 0.25 | 792.7 ± 0.2 | 1.65 ± 0.2 | 788.4 ± 0.2 | 1.29 ± 0.16 | 784 ± 0.2 | –
7 | Nc1ccccc1 [aniline] | – | – | – | – | – | – | 4.37 ± 0.53 | 1021.7 ± 0.3 | 3.8 ± 0.46 | 1017.4 ± 0.3 | 3.13 ± 0.38 | 1013.2 ± 0.3 | 2.75 ± 0.33 | 1009 ± 0.3 | 2.43 ± 0.29 | 1004.7 ± 0.3 | 2.14 ± 0.26 | 1000.4 ± 0.3 | 1.96 ± 0.24 | 995.5 ± 0.3 | –
